What was measured:
[1] = Toxicity in BALB/c nude mouse xenografted with human MCF7 cells expressing AKR1C3 assessed as histopathological changes in liver at 10 mg/kg, po administered every 2 days for 3 weeks in presence of doxorubicin by H and E staining based analysis; type: organism-based; conditions: in vivo, 504 h
[2] = Cmax in Sprague-Dawley rat at 10 mg/kg, IG measured for 5760 mins by LC-MS/MS analysis; type: ADME, organism-based; design: dose 10 mg/kg, time 5760 min, route ig; conditions: in vivo, po
[3] = Toxicity in BALB/c nude mouse xenografted with human MCF7 cells expressing AKR1C3 assessed as histopathological changes in kidney at 10 mg/kg, po administered every 2 days for 3 weeks in presence of doxorubicin by H and E staining based analysis; type: organism-based; conditions: in vivo, 504 h
[4] = Toxicity in BALB/c nude mouse xenografted with human MCF7 cells expressing AKR1C3 assessed as histopathological changes in heart at 10 mg/kg, po administered every 2 days for 3 weeks by H and E staining based analysis; type: organism-based; conditions: in vivo, 504 h
MCF7 [5] = assay: Restoration of doxorubicin sensitivity in human MCF7 cells assessed as inhibition of colony formation at 25 uM incubated for 12 days in presence of doxorubicin at 50 nM by crystal violet staining based assay relative to control; type: functional; conditions: time 12 day
MCF7 [6] = assay: Synergistic antiproliferative activity against human MCF7 cells overexpressing AKR1C3 assessed as dose reduction index for doxorubicin at 25 uM incubated for 72 hrs in presence of doxorubicin at 50 nM by Chou-Talalay method; type: functional
[7] = AUC (0 to t) in Sprague-Dawley rat at 10 mg/kg, IG measured for 5760 mins by LC-MS/MS analysis; type: ADME, organism-based; design: time 5760 min, dose 10 mg/kg, route ig; conditions: in vivo, po
MCF7 [8] = assay: Synergistic antiproliferative activity against human MCF7 cells overexpressing AKR1C3 assessed as dose reduction index for doxorubicin at 10 uM incubated for 72 hrs in presence of doxorubicin at 100 nM by Chou-Talalay method; type: functional
MCF7 [9] = assay: Synergistic antiproliferative activity against human MCF7 cells overexpressing AKR1C3 assessed as combination index at 10 uM incubated for 72 hrs in presence of doxorubicin at 200 nM by Chou-Talalay method; type: functional
[10] = Elimination phase half life in Sprague-Dawley rat at 10 mg/kg, IG measured for 5760 mins by LC-MS/MS analysis; type: ADME, organism-based; conditions: in vivo, po, read-out: beta t1/2 (converted)
[11] = MRT (0 to infinity) in Sprague-Dawley rat at 2 mg/kg, iv measured for 5760 mins by LC-MS/MS analysis; type: ADME, organism-based; conditions: in vivo
[12] = Metabolic stability in liver microsomes (unknown origin) assessed as half life; type: ADME, Microsome
[13] = target: Aldo-keto reductase family 1 member B10 (Homo sapiens, UniProt O60218); assay: Inhibition of AKR1B10 (unknown origin) transfected in Escherichia coli BL21 (DE3) pLysS competent cells using pyridine-3-aldehyde as substrate assessed as inhibition of NADP+ dependent substrate oxidation incubated for 10 mins
Aldo-keto reductase family 1 member B10, sequence (O60218 whole entry): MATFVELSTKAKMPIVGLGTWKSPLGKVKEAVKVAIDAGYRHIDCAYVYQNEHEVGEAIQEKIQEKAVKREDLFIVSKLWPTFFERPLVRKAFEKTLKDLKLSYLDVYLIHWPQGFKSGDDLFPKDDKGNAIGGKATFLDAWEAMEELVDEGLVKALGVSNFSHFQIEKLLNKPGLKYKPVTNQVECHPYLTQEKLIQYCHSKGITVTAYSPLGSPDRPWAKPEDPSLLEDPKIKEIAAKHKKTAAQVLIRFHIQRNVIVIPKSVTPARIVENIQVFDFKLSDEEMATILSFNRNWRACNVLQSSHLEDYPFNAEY

## O=C(O)C1(c2ccc(-c3cc(Cl)cc(Cl)c3)c(F)c2)CC1
[1]
  Activity: Non-Toxic
[2]
  Cmax: 45.5 µg/mL
[3]
  Activity: Non-Toxic
[4]
  Activity: Non-Toxic
MCF7 [5]
  inhibition (INH): 100%
MCF7 [6]
  Activity_index: 22.177
[7]
  AUC(0-t) at 96 h: 1.48 µg·h/mL
MCF7 [8]
  Activity_index: 4.423
MCF7 [9]
  CI: 0.319
[10]
  half-life: 21.3 h
[11]
  MRT inf: 51.1 h
[12]
  half-life: 6.94 h
[13]
  IC50: > 10 µM

— ChEMBL document CHEMBL5346950, “Development of Biaryl-Containing Aldo-Keto Reductase 1C3 (AKR1C3) Inhibitors for Reversing AKR1C3-Mediated Drug Resistance in Cancer Treatment” (J Med Chem, 2023)
